# DBAASP
# Legend:
# Experiment in all cases: ≥ marks a high value that may be exact or a test limit, other limits are often not marked, values filed in µg/mL are converted to µM
# [1] = system: Pseudomonas syringae pv. syringae DSM 10604
# [2] = system: Pseudomonas syringae pv. tomato DC3000
# [3] = system: Pectobacterium carotovorum subsp. carotovorum DSM 30168
# [4] = system: Xanthomonas vesicatoria DSM 50861
# [5] = system: Staphylococcus aureus 90857
# [6] = system: Pseudomonas corrugata DSM 7228
# [7] = system: Clavibacter michiganensis subsp. michiganensis DSM 46294
# [8] = system: Staphylococcus epidermidis
# Escherichia coli UB1005 = system: Escherichia coli UB1005
# [9] = system: Escherichia coli ATCC 25922
# [10] = system: Enterococcus faecalis NCTC 12203
# [11] = system: Enterococcus faecalis ATCC 29212
# Escherichia coli = system: Escherichia coli
# [12] = system: Staphylococcus aureus ATCC 29213
# Staphylococcus aureus MR = system: Staphylococcus aureus MR
# Micrococcus luteus A270 = system: Micrococcus luteus A270
# Bacillus megaterium KM = system: Bacillus megaterium KM
# [13] = system: Spiroplasma melliferum BC3
# [14] = system: Staphylococcus aureus ATCC 25923
# [15] = system: Pseudomonas aeruginosa ATCC 27853
# Escherichia coli K-12 = system: Escherichia coli K-12
# [16] = system: Acholeplasma laidlawii A-PG8
# [17] = system: Salmonella typhimurium CIP 6062
# [18] = system: Sinorhizobium meliloti 102F34
# [19] = system: Staphylococcus haemolyticus
# [20] = system: Cryptococcus neoformans Steroform B
# Bacillus sp. ATCC 14412 = system: Bacillus sp. ATCC 14412
# [21] = system: Cryptococcus neoformans Steroform A
# Candida glabrata = system: Candida glabrata
# Candida krusei = system: Candida krusei
# Yarrowia lipolytica = system: Yarrowia lipolytica
# Candida albicans A39 = system: Candida albicans A39
# Bacillus megaterium = system: Bacillus megaterium
# Bacillus cereus = system: Bacillus cereus
# Micrococcus luteus = system: Micrococcus luteus
# [22] = system: Cryptococcus neoformans Steroform D
# [23] = system: Cryptococcus neoformans Steroform C
# Escherichia coli P4 = system: Escherichia coli P4
# Enterobacter cloacae = system: Enterobacter cloacae
# Klebsiella aerogenes = system: Klebsiella aerogenes
# Klebsiella pneumoniae = system: Klebsiella pneumoniae
# Serratia marcescens = system: Serratia marcescens
# Pseudomonas aeruginosa = system: Pseudomonas aeruginosa
smiles,measurement,setting,value
CC(C)C[C@H](NC(=O)[C@H](CCCCN)NC(=O)[C@H](CCCN=C(N)N)NC(=O)[C@H](CCCN=C(N)N)NC(=O)[C@@H](N)CCCCN)C(=O)N[C@@H](C)C(=O)N[C@@H](Cc1ccccc1)C(=O)N[C@@H](CCCN=C(N)N)C(=O)N[C@@H](CC(C)C)C(=O)N[C@@H](Cc1ccccc1)C(=O)N[C@@H](CCCN=C(N)N)C(=O)N[C@@H](CC(C)C)C(=O)N[C@@H](Cc1ccccc1)C(=O)N[C@@H](CC(C)C)C(=O)N[C@@H](CCCCN)C(=O)N[C@@H](CC(C)C)C(=O)N[C@H](C(=O)N[C@@H](CC(C)C)C(=O)N[C@@H](CCCCN)C(=O)N[C@@H](CCCCN)C(N)=O)C(C)C [KRRKLAFRLFRLFLKLVLKK],MIC,[1],1.94 µM
same,MIC,[2],0.971 µM
same,MIC,[3],3.88 µM
same,MIC,[4],0.0971 µM
same,MIC,[5],16 µM
same,MIC,[6],0.971 µM
same,MIC,[7],0.194 µM
CC[C@H](C)[C@H](NC(=O)[C@H](CCCCN)NC(=O)[C@@H](N)Cc1c[nH]c2ccccc12)C(=O)N[C@H](C(=O)N[C@@H](Cc1ccccc1)C(=O)N[C@@H](Cc1c[nH]c2ccccc12)C(=O)N[C@@H](Cc1c[nH]c2ccccc12)C(=O)N[C@@H](CCCN=C(N)N)C(=O)N[C@@H](CCCN=C(N)N)C(N)=O)C(C)C [WKIVFWWRR],MIC,[8],0.182 µM
same,MIC,Escherichia coli UB1005,2.91 µM
same,MIC,[9],1.45 µM
same,MIC,[10],0.726 µM
same,MIC,[11],0.726 µM
same,MIC,Escherichia coli,1.45 µM
same,MIC,[12],0.363 µM
same,MIC,Staphylococcus aureus MR,0.363 µM
CC[C@H](C)[C@H](NC(=O)CNC(=O)[C@H](CO)NC(=O)[C@H](C)NC(=O)[C@@H](NC(=O)[C@H](CCCCN)NC(=O)[C@H](CO)NC(=O)[C@H](CCSC)NC(=O)[C@H](Cc1c[nH]c2ccccc12)NC(=O)CN)[C@@H](C)CC)C(=O)NCC(=O)N[C@H](C(=O)N[C@@H](Cc1ccccc1)C(=O)N[C@@H](CC(C)C)C(=O)N[C@@H](CO)C(=O)NCC(=O)N[C@@H](CCSC)C(=O)N[C@@H](CCC(N)=O)C(=O)N[C@@H](CCC(N)=O)C(N)=O)[C@@H](C)O [GWMSKIASGIGTFLSGMQQ],MIC,Micrococcus luteus A270,3 µM
same,MIC,Bacillus megaterium KM,3.12 µM
same,MIC,[13],≥ 50 µM
same,MIC,[14],> 100 µM
same,MIC,[15],> 100 µM
same,MIC,Escherichia coli K-12,10 µM
same,MIC,[16],12.5 µM
same,MIC,[17],≥ 100 µM
same,MIC,[18],12.5 µM
CC[C@H](C)[C@H](NC(=O)[C@H](Cc1ccccc1)NC(=O)[C@@H](NC(=O)[C@@H]1CCCN1C(=O)[C@H](CCCN=C(N)N)NC(=O)[C@H](CO)NC(=O)[C@@H]1CCCN1C(=O)[C@H](CCCCN)NC(=O)[C@H](CCCN=C(N)N)NC(=O)[C@H](CC(C)C)NC(=O)[C@@H]1CCCN1C(=O)[C@H](CCCN=C(N)N)NC(=O)[C@@H](NC(=O)[C@H](Cc1ccc(O)cc1)NC(=O)CNC(=O)[C@H](CO)NC(=O)[C@H](CO)NC(=O)[C@@H](N)Cc1cnc[nH]1)[C@@H](C)O)[C@@H](C)CC)C(=O)N[C@@H](CCCN=C(N)N)C(=O)N1CCC[C@H]1C(=O)N[C@H](C(=O)NCC(N)=O)[C@@H](C)CC [HSSGYTRPLRKPSRPIFIRPIG],MIC,[19],≥ 50 µM
same,MIC,[20],3.16 µM
same,MIC,Bacillus sp. ATCC 14412,4.42 µM
same,MIC,[21],3.16 µM
same,MIC,Candida glabrata,7.07 µM
same,MIC,Candida krusei,7.07 µM
same,MIC,Yarrowia lipolytica,3.16 µM
same,MIC,Escherichia coli,> 50 µM
same,MIC,Candida albicans A39,17.7 µM
same,MIC,Bacillus megaterium,≥ 50 µM
same,MIC,Bacillus cereus,≥ 50 µM
same,MIC,Micrococcus luteus,8.84 µM
same,MIC,[22],1.13 µM
same,MIC,[23],1.79 µM
CC[C@H](C)[C@H](NC(=O)[C@H](Cc1ccccc1)NC(=O)[C@H](CC(N)=O)NC(=O)[C@H](CCCCN)NC(=O)[C@H](CCCN=C(N)N)NC(=O)[C@H](C)NC(=O)[C@H](CCCCN)NC(=O)[C@H](Cc1c[nH]c2ccccc12)NC(=O)[C@@H](N)CCCCN)C(=O)N[C@@H](CCCCN)C(=O)NCC(=O)N[C@@H](CO)C(=O)N[C@@H](CO)C(=O)N[C@@H](CC(C)C)C(=O)NCC(=O)N[C@@H](Cc1c[nH]c2ccccc12)C(=O)N[C@@H](CC(C)C)C(=O)N[C@H](C(=O)N[C@@H](CCC(N)=O)C(=O)N[C@@H](CC(C)C)C(=O)N[C@@H](Cc1ccccc1)C(=O)N[C@@H](CCCN=C(N)N)C(=O)N[C@@H](CCCCN)C(=O)N[C@@H](CCCN=C(N)N)C(=O)O)[C@@H](C)CC [KWKARKNFIKGSSLGWLIQLFRKR],MIC,Escherichia coli P4,10.8 µM
same,MIC,Enterobacter cloacae,15.3 µM
same,MIC,Klebsiella aerogenes,21.6 µM
same,MIC,[9],15.3 µM
same,MIC,Klebsiella pneumoniae,15.3 µM
same,MIC,Escherichia coli,15.3 µM
same,MIC,[12],21.6 µM
same,MIC,Serratia marcescens,≥ 173 µM
same,MIC,Pseudomonas aeruginosa,43.2 µM
